Where two headings read alike, the source gives them in different places.
Tests used:
[1] = DISTOL-1 randomized Phase IIB study of oral treprostinil diethanolamine versus placebo, digital ulcers in systemic sclerosis; type: in vivo, human
Source text: Primary: To assess the effect of oral treprostinil in reducing net ulcer burden compared to placebo in patients with systemic sclerosis (SSc) as measured by the change in net ulcer burden from Baseline to Follow-up between treatment groups at 20 weeks. […] Target enrollment of […] patients to complete 128 subjects. […] Primary analysis: effect of treprostinil versus placebo on change in net ulcer burden at Week 20 evaluated using non-parametric analysis of covariance within the framework of the extended Cochran-Mantel-Haenszel test.

[2] = for subjects who tolerated the dose: 10 SSc patients
Description: During a phase I PK trial of oral treprostinil in SSc patients, the goal was to quantify changes in perfusion as assessed by laser Doppler imaging (LDI) and to determine whether improvements in perfusion correlated with drug concentration.
10 SSc patients with recent or active DU participated in the study.
Dosing: Oral treprostinil titrated up to 4 mg twice daily (BID) as tolerated over 6-8 weeks. Pharmokinetics (PK) and laser Doppler imaging (LDI) assessments: performed when subjects achieved the 2 mg and 4 mg (or maximally tolerated dose) doses. […] 8 serial measures of digital perfusion and drug concentration were obtained over 12 hours at each of the 2 study visits.
Repeated measures analyses were performed using random effects model. Dependent variables were perfusion and skin temperature. The predictor of interest was log-transformed drug concentration. Covariates with p-values less than 0.15 were kept in the model. All data was used, across time points, visits, and hands.

[3] = 4 mg visit (but not the 2 mg visit), adjusted for time points of Doppler assessment
[4] = Subject 6, 4 mg visit, baseline at drug trough prior to administration of 4 mg dose
[5] = Subject 6, 4 mg visit, twelve hours after dosing

With `CCCCC[C@H](O)CC[C@@H]1[C@H]2Cc3cccc(OCC(=O)O)c3C[C@H]2C[C@H]1O.OCCNCCO` [treprostinil diethanolamine, Treprostinil diethanolamine] the “change in net ulcer burden at Week 20” value ([1]; ACA negative subset of patients) was “statistically significant changes were observed”, the “Time to Cardinal Ulcer Healing (mean days)” value ([1]; Active n = 71) was 76.3 ± 35 days and the “Time to all Ulcers Healed (mean days)” value ([1]; Active n = 71) was 90.2 ± 35.6 days. The “Mean # of new ulcers” value ([1]; Active n = 71, listed under new ulcers formed after Week 5) was 0.9, the “All Ulcers Healed” value ([1]; Active n = 71, number (%)) was 35 (49%) and the “Any new ulcers formed after Week 5? At least one new” value ([1]; Active n = 71, number (%)) was 27 (38%). The “Any new ulcers formed after Week 5? No new” value ([1]; Active n = 71, number (%)) was 30 (42%), the “Any new ulcers formed during study? At least one new” value ([1]; Active n = 71, number (%)) was 39 (55%) and the “Any new ulcers formed during study? No new” value ([1]; Active n = 71, number (%)) was 24 (34%). The “Cardinal Ulcer Healed” value ([1]; Active n = 71, number (%)) was 44 (62%), the “Discontinuations: Adverse Event” value ([1]; Active n = 72, number (%) of subjects) was 9 (13%) and the “Mean Change in Net Ulcer Burden Week 20 P value” ([1]; Subgroup (ACA) Negative (n = 40/34)) was 0.01. For the same compound, the “Mean Change in Net Ulcer Burden Week 20 P value” ([1]; Subgroup (ACA) Positive (n = 19/29)) was 0.97, the “Mean Change in Net Ulcer Burden Week 20 P value” ([1]; Subgroup (ATA) Negative (n = 32/38)) was 0.58 and the “Mean Change in Net Ulcer Burden Week 20 P value” ([1]; Subgroup (ATA) Positive (n = 27/22)) was 0.06. For the same compound, the “Mean Change in Net Ulcer Burden Week 20 P value” ([1]; Subgroup >2 active ulcers at Baseline (n = 10/10)) was 0.51, the “Mean Change in Net Ulcer Burden Week 20 P value” ([1]; Subgroup ACA Negative/ATA Positive (n = 20/15)) was 0.013 and the “Mean Change in Net Ulcer Burden Week 20 P value” ([1]; Subgroup Diffuse SSc (n = 31/21)) was 0.32. For the same compound, the “Mean Change in Net Ulcer Burden Week 20 P value” ([1]; Subgroup Limited SSc (n = 42/55 Active/Placebo)) was 0.42, the “Mean Change in Net Ulcer Burden Week 20 P value” ([1]; Subgroup No PDEI background (n = 59/63)) was 0.21 and the “Mean Change in Net Ulcer Burden Week 20 P value” ([1]; Subgroup PDEI background (n = 12/13)) was 0.90. For the same compound, the “Mean Change in Net Ulcer Burden Week 20 P value” ([1]; Subgroup ≦2 active ulcers at Baseline (n = 61/66)) was 0.10, the “Patient Global and Digital Ulcer pain VAS” value ([1]; Week 20) was “Improvement not reaching statistical significance” and the “symptomatic relief of pain and functional deficits associated with ischemic vascular disease” value ([1]; patients with scleroderma and digital ulcers, orally administered) was “provided symptomatic relief of pain”. The “change in net ulcer burden at Week 20, primary analysis” value ([1]; total population, versus placebo) was “did not achieve statistical significance”, the “subjects who tolerated the dose” value ([2]; 2 mg BID by the first PK visit) was “Nine” and the “subjects who tolerated the dose” value ([2]; 4 mg BID by the 2nd PK visit) was 6 subjects. For the same compound, the “association of digital skin temperature with log-transformed plasma concentration” value [2, 3] was “positively associated”, the “association of perfusion with log-transformed plasma concentration” value [2, 3] was “positively associated” and the “perfusion versus drug exposure” value ([2]; AUCs, FIG. 4) was “increase in perfusion was observed with an increase in drug exposure”. For the same compound, the “plasma concentration versus dose” value ([2]; AUCs, FIG. 4) was “increase in plasma concentration was observed with an increase in dose”, the “mean perfusion (laser Doppler imaging)” value [2, 4] was 89.3 units and the skin temperature [2, 4] was 25 °C. The “perfusion (laser Doppler imaging)” value [2, 5] was 298.3 units, the skin temperature [2, 5] was 32 °C and the adverse effects ([2]; titrated up to 4 mg BID over 6-8 weeks) was “transient and typical of prostacyclin therapy”.

— patent publication US20120004307A1, “ORAL TREATMENT OF DIGITAL ISCHEMIC LESIONS” (priority 2010, published 2012)
